Common to all, as to assay type: cell-based
Experiment [1] concerns SARS-CoV-2 pseudovirus. In words: microbe, parasite or virus in culture. To be noted: Vero cells, luciferase signal, mean ± SEM of 3 tests, read-out: EC50, inhibition of SARS-CoV-2 pseudovirus entry in Vero cells.
In experiment [2] the test system is SARS-CoV-2 pseudovirus. In words: microbe, parasite or virus in culture. To be noted: A549-AT cells (ACE2 and TMPRSS2), luciferase signal, mean ± SEM of 3 tests, read-out: EC50, inhibition of SARS-CoV-2 pseudovirus entry in A549-AT cells.
Experiment [3] concerns S. haemolyticus. Nature of the experiment: MIC, broth microdilution. To be noted: Staphylococcus haemolyticus. From the text: (§1) We determined the minimal inhibitory concentrations (MIC) of the teicoplanin conjugates for a large panel of Gram-positive bacterial strains, using vancomycin, unmodified teicoplanin, dalbavancin and oritavancin as reference compounds. […] The bacterial strains (see Suppl. Table S5 for all details) were selected to achieve maximum diversity of multidrug-resistance and include strains with known mechanisms of resistance to glycopeptides in clinical use. The S. epidermidis and S. haemolyticus strains resistant to dalbavancin and oritavancin were obtained in vitro from clinical isolates sensitive to the glycopeptide antibiotics.
Background: In broth dilution the organism is exposed to a series of concentrations in liquid medium.

Experiment [4] deals with S. aureus. Nature of the experiment: MIC, broth microdilution. To be noted: Staphylococcus aureus.
Description: as §1

Experiment [5] deals with S.pyogenes. In words: MIC, broth microdilution. To be noted: Streptococcus pyogenes.
Description: as §1

In experiment [6] the test system is E. faecalis. Nature of the experiment: MIC, broth microdilution. To be noted: Enterococcus faecalis.
Description: as §1

Experiment [7] relates to E. faecium. In words: microbe, parasite or virus in culture. The note with it: Enterococcus faecium.
Description: as §1

Experiment [8] relates to S. epidermidis. Nature of the experiment: microbe, parasite or virus in culture. To be noted: Staphylococcus epidermidis.
Description: as §1

Where [9] appears, read: Severe acute respiratory syndrome-related coronavirus.

≈ marks a conversion by molar mass, not a printed value. Like-named read-outs stand apart in the source and are kept apart here.

For `CN(C)C(=O)COC(=O)Cc1ccc(OC(=O)c2ccc(NC(=N)N)cc2)cc1` [Camostat, camostat, reference compound], the results for the EC50 in experiment [1] (setting [9]) and in experiment [2] (setting [9]) were greater than 20000 nM and 490 ± 50 nM, respectively.
For the compound `CCOC(=O)[C@H]1O[C@@H]1C(=O)N[C@@H](CC(C)C)C(=O)NCCC(C)C` [Compound E64d, reference compound], the half-maximal effective concentration (EC50) in experiment [1] is 1300 ± 1200 nM; in experiment [2] it was greater than 20000 nM.
As for `CN[C@H](CC(C)C)C(=O)N[C@H]1C(=O)N[C@@H](CC(N)=O)C(=O)N[C@H]2C(=O)N[C@H]3C(=O)N[C@H](C(=O)N[C@H](C(=O)O)c4cc(O)cc(O)c4-c4cc3ccc4O)[C@H](O)c3ccc(c(Cl)c3)Oc3cc2cc(c3O[C@@H]2O[C@H](CO)[C@@H](O)[C@H](O)[C@H]2O[C@H]2C[C@](C)(N)[C@H](O)[C@H](C)O2)Oc2ccc(cc2Cl)[C@H]1O` [VAN, vancomycin, reference compound], the MIC in experiment [3] (S. haemolyticus mecA, 6 strains, read-out: Average MIC value) was found to be 28 µg/mL (≈ 19.3 µM); in experiment [3] (S.haemolyticus DALB_R1, mecA, read-out: MIC value), 32 µg/mL (≈ 22.1 µM); in experiment [3] (S.haemolyticus DALB_R2, mecA, read-out: MIC value), 64 µg/mL (≈ 44.2 µM); in experiment [3] (S.haemolyticus DALB_R3, mecA, read-out: MIC value), 8 µg/mL (≈ 5.52 µM); in experiment [3] (S.haemolyticus DALB_R4, mecA, read-out: MIC value), 32 µg/mL (≈ 22.1 µM); in experiment [3] (S.haemolyticus DALB_R5, mecA, read-out: MIC value), 16 µg/mL (≈ 11 µM). Further, the MIC turned out to be 16 µg/mL (≈ 11 µM) in experiment [3] (S.haemolyticus ORI_R1, mecA, read-out: MIC value); 1 µg/mL (≈ 0.69 µM) in experiment [4] (ATCC 29213 / MSSA, read-out: MIC value, S. aureus ATCC29213, MSSA); 0.25 µg/mL (≈ 0.173 µM) in experiment [4] (MRSA / USA300, read-out: MIC value, S. aureus USA300, CA-MRSA); 0.25 µg/mL (≈ 0.173 µM) in experiment [4] (MRSA, read-out: Average MIC value, S. aureus CA-MRSA, 1 strain); 1.25 µg/mL (≈ 0.863 µM) in experiment [4] (MRSA, read-out: Average MIC value, S. aureus MRSA, 7 strains); 1 µg/mL (≈ 0.69 µM) in experiment [4] (MRSA, read-out: MIC value, S. aureus 73OL, MRSA). For the same compound, the MIC turned out to be 1 µg/mL (≈ 0.69 µM) in experiment [4] (MRSA, read-out: MIC value, S. aureus 214OL, MRSA); 1 µg/mL (≈ 0.69 µM) in experiment [4] (MRSA, read-out: MIC value, S. aureus 1041OL, MRSA); 1 µg/mL (≈ 0.69 µM) in experiment [4] (MRSA, read-out: MIC value, S. aureus A6918, MRSA); 0.25 µg/mL (≈ 0.173 µM) in experiment [4] (MRSA, read-out: MIC value, S. aureus A6919, MRSA); 4 µg/mL (≈ 2.76 µM) in experiment [4] (MRSA, read-out: MIC value, S. aureus Mu50, MRSA); 0.5 µg/mL (≈ 0.345 µM) in experiment [4] (MRSA, read-out: MIC value, S. aureus N315, MRSA). The MIC turned out to be 0.5 µg/mL (≈ 0.345 µM) in experiment [4] (MSSA / NEWMAN, read-out: MIC value, S. aureus Newman, MSSA); 0.625 µg/mL (≈ 0.431 µM) in experiment [4] (MSSA, read-out: Average MIC value, S. aureus MSSA, 4 strains); 0.5 µg/mL (≈ 0.345 µM) in experiment [4] (MSSA, read-out: MIC value, S. aureus MSSA476, MSSA); 0.5 µg/mL (≈ 0.345 µM) in experiment [4] (MSSA, read-out: MIC value, S. aureus SA564, MSSA); 0.0625 µg/mL (≈ 0.0431 µM) in experiment [5] (read-out: MIC value, S.pyogenes H232); 0.0625 µg/mL (≈ 0.0431 µM) in experiment [5] (read-out: MIC value, S.pyogenes H550). Besides, the MIC in experiment [5] (read-out: MIC value, S.pyogenes H578) is 0.0625 µg/mL (≈ 0.0431 µM); in experiment [6] (read-out: Average MIC value, E. faecalis VAN^R,TEI^R/VanA, 1 strain) it was greater than 64 µg/mL; in experiment [6] (read-out: Average MIC value, E. faecalis VAN^S, TEI^S, 2 strains), 0.25 µg/mL (≈ 0.173 µM); in experiment [6] (read-out: MIC value, E.faecalis JH2-2), 0.25 µg/mL (≈ 0.173 µM); in experiment [6] (read-out: MIC value, E.faecalis OG1RF) it was 0.25 µg/mL (≈ 0.173 µM); in experiment [6] (read-out: MIC value, E.faecalis V583, VAN,TEI/VanA), greater than 64 µg/mL. Moreover, the MIC in experiment [7] (read-out: Average MIC value, E. faecium VAN^R,TEI^R/VanA, 8 strains) was greater than 64 µg/mL; in experiment [7] (read-out: Average MIC value, E. faecium VAN^S, TEI^S, 1 strain), 0.25 µg/mL (≈ 0.173 µM); in experiment [7] (read-out: MIC value, E.faecium E335, VAN,TEI,LNZ/VanA), greater than 64 µg/mL; in experiment [7] (read-out: MIC value, E.faecium E355, VAN,TEI,LNZ/VanA), greater than 64 µg/mL; in experiment [7] (read-out: MIC value, E.faecium E832, VAN,TEI,LNZ/VanA), greater than 64 µg/mL; in experiment [7] (read-out: MIC value, E.faecium E854, VAN,TEI,LNZ/VanA), greater than 64 µg/mL. In addition, the MIC in experiment [7] (read-out: MIC value, E.faecium E859, VAN,TEI,LNZ/VanA) is greater than 64 µg/mL; in experiment [7] (read-out: MIC value, E.faecium E1114, VAN,TEI,LNZ/VanA), greater than 64 µg/mL; in experiment [7] (read-out: MIC value, E.faecium E1131, VAN,TEI,LNZ/VanA) it was greater than 64 µg/mL; in experiment [7] (read-out: MIC value, E.faecium E1132, VAN,TEI,LNZ/VanA), greater than 64 µg/mL; in experiment [7] (read-out: MIC value, E.faecium TX0016), 0.25 µg/mL (≈ 0.173 µM); in experiment [8] (read-out: Average MIC value, S. epidermidis mecA, 6 strains) it was 6.67 µg/mL (≈ 4.6 µM). The MIC was 8 µg/mL (≈ 5.52 µM) in experiment [8] (read-out: MIC value, S.epidermidis ORI_R1, mecA); 8 µg/mL (≈ 5.52 µM) in experiment [8] (read-out: MIC value, S.epidermidis ORI_R2, mecA); 8 µg/mL (≈ 5.52 µM) in experiment [8] (read-out: MIC value, S.epidermidis ORI_R3, mecA); 4 µg/mL (≈ 2.76 µM) in experiment [8] (read-out: MIC value, S.epidermidis ORI_R4, mecA); 4 µg/mL (≈ 2.76 µM) in experiment [8] (read-out: MIC value, S.epidermidis TEI_R1, mecA); 8 µg/mL (≈ 5.52 µM) in experiment [8] (read-out: MIC value, S.epidermidis TEI_R2, mecA).

A word on the EC50: it is the concentration giving half of the maximal effect.
